In patent US9409866B2, “Pyridine-2-amides useful as CB2 agonists” (Hoffmann-La Roche Inc., priority 2012, dated 2016):
Read-outs that look alike come from different tables or passages of the source. Each block holds one compound with its values, some of them ahead of it.

Key:
human CB1 receptors = human CB1 receptors (Homo sapiens (Human), UniProt P21554); assay: functional cAMP assay, CHO cells expressing human CB1; type: cell-based
Outline: (§1)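 Agonist EC50 values came from cAMP levels in CHO cells carrying human CB1 or CB2, after 30 min of compound treatment at 30 °C in the presence of 1 mM IBMX. Detection used a time-resolved FRET cAMP kit read against a cAMP standard curve.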

human CB2 receptors = human CB2 receptors (Homo sapiens (Human), UniProt P34972); assay: functional cAMP assay, CHO cells expressing human CB2; type: cell-based
Sequence of human CB2 receptors (P34972 whole entry): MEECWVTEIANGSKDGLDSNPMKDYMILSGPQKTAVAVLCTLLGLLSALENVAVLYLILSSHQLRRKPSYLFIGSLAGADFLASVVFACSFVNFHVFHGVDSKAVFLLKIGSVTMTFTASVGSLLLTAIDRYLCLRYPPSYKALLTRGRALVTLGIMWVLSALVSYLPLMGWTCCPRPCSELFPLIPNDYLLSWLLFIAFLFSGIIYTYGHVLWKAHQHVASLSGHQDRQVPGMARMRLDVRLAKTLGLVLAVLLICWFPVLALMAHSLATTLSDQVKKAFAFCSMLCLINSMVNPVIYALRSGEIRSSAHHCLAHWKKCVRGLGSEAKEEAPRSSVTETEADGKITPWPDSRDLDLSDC
Outline: as §1

[1] = Human CB1 EC50 (uM), functional cAMP assay, CHO cells expressing human CB1
[2] = functional cAMP assay, CHO cells expressing human CB1; read-out: Human CB1 EC50
[3] = read-out: Human CB1 EC50; functional cAMP assay, CHO cells expressing human CB1

Sequence of human CB1 receptors (P21554 whole entry): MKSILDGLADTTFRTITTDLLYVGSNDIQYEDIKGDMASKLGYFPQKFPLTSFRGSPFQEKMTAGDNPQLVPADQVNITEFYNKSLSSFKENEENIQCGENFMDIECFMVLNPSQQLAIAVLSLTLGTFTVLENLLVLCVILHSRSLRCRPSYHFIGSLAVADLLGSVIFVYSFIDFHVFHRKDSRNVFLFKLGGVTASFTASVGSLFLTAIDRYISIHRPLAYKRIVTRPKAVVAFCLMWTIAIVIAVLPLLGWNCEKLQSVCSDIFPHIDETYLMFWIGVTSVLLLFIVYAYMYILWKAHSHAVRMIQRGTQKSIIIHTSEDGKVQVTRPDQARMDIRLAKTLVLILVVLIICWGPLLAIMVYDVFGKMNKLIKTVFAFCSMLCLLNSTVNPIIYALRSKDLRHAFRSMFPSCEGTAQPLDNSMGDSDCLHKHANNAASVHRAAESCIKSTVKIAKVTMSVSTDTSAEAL

Compound: CC(CC(N)=O)(NC(=O)c1cc(OCC(F)(F)F)c(N2CC(F)(F)C2)cn1)C1CC1 (single isomer, unassigned) [Example 275, N-[4-amino-2-cyclopropyl-4-oxobutan-2-yl]-5-(3,3-difluoroazetidin-1-yl)-4-(2,2,2-trifluoroethoxy)pyridine-2-carboxamide]
EC50 (human CB1 receptors; [1]): > 10 µM | EC50 (human CB2 receptors; Human CB2 EC50 (uM)): 0.0227 µM

Compound: CC(C)(CO)CNC(=O)c1cc(OCC2CC2)c(Cl)cn1 [Example 17, 5-Chloro-4-cyclopropylmethoxy-pyridine-2-carboxylic acid (3-hydroxy-2,2-dimethyl-propyl)-amide]
EC50 (human CB1 receptors; [2]): > 10 µM | EC50 (human CB2 receptors; read-out: Human CB2 EC50): 0.0473 µM

Compound: CCC[C@H](CO)NC(=O)c1cc(OCC2CC2)c(Cl)cn1 [Example 13, 5-Chloro-4-cyclopropylmethoxy-pyridine-2-carboxylic acid ((R)-1-hydroxymethyl-butyl)-amide]
EC50 (human CB1 receptors; [2]): > 10 µM | EC50 (human CB2 receptors; read-out: Human CB2 EC50): 0.146 µM

Compound: CC(CS(C)(=O)=O)(NC(=O)c1cc(OCC(F)(F)F)c(C2CC2)cn1)C(N)=O (centres unmarked) [Example 134, N-(1-amino-2-methyl-3-methylsulfonyl-1-oxopropan-2-yl)-5-cyclopropyl-4-(2,2,2-trifluoroethoxy)pyridine-2-carboxamide]
EC50 (human CB1 receptors; [2]): > 10 µM | EC50 (human CB2 receptors; read-out: Human CB2 EC50): 0.888 µM

Compound: Cc1cnc(C2(NC(=O)c3cc(OCC(F)(F)F)c(C4CC4)cn3)CCOCC2)s1 [Example 153, 5-cyclopropyl-N-[4-(5-methyl-1,3-thiazol-2-yl)oxan-4-yl]-4-(2,2,2-trifluoroethoxy)pyridine-2-carboxamide]
EC50 (human CB1 receptors; [1]): > 10 µM | EC50 (human CB2 receptors; Human CB2 EC50 (uM)): 0.0407 µM

Compound: O=C(N[C@@H](c1cccnc1)C(F)(F)F)c1cc(OCC2CC2)c(Cl)cn1 [Example 22, 5-Chloro-4-cyclopropylmethoxy-pyridine-2-carboxylic acid ((S)-2,2,2-trifluoro-1-pyridin-3-yl-ethyl)-amide]
EC50 (human CB1 receptors; [2]): > 10 µM | EC50 (human CB2 receptors; read-out: Human CB2 EC50): 0.0057 µM

Compound: CCC(O)CNC(=O)c1cc(OCC2CC2)c(C2CC2)cn1 (centres unmarked) [Example 58, 5-Cyclopropyl-4-cyclopropylmethoxy-pyridine-2-carboxylic acid (2-hydroxy-butyl)-amide]
EC50 (human CB1 receptors; [2]): > 10 µM | EC50 (human CB2 receptors; read-out: Human CB2 EC50): 0.0637 µM

Compound: Cc1nc(C(C)(CC2CC2)NC(=O)c2cc(O[C@@H](C)C(F)(F)F)c(C3(F)COC3)cn2)no1 (stereo partly drawn) [Example 170, N-[1-cyclopropyl-2-(5-methyl-1,2,4-oxadiazol-3-yl)propan-2-yl]-5-(3-fluorooxetan-3-yl)-4-[(2S)-1,1,1-trifluoropropan-2-yl]oxypyridine-2-carboxamide]
EC50 (human CB1 receptors; [2]): > 10 µM | EC50 (human CB2 receptors; read-out: Human CB2 EC50): 0.0254 µM

Compound: Cc1nc(C(C)(CS(C)(=O)=O)NC(=O)c2cc(OCC(F)(F)F)c(C3(O)CCC3)cn2)no1 (centres unmarked) [Example 129, 5-(1-hydroxycyclobutyl)-N-[2-(5-methyl-1,2,4-oxadiazol-3-yl)-1-methylsulfonylpropan-2-yl]-4-(2,2,2-trifluoroethoxy)pyridine-2-carboxamide]
EC50 (human CB1 receptors; [2]): > 10 µM | EC50 (human CB2 receptors; read-out: Human CB2 EC50): 1.09 µM

Compound: Cc1nc(C(C)(CS(C)(=O)=O)NC(=O)c2cc(O[C@@H](C)C(F)(F)F)c(C3CC3)cn2)no1 (stereo partly drawn) [Example 81, 5-Cyclopropyl-4-((S)-2,2,2-trifluoro-1-methyl-ethoxy)-pyridine-2-carboxylic acid [2-methanesulfonyl-1-methyl-1-(5-methyl-[1,2,4]oxadiazol-3-yl)-ethyl]-amide]
EC50 (human CB1 receptors; [1]): 0.19 µM | EC50 (human CB2 receptors; Human CB2 EC50 (uM)): 0.0053 µM

Compound: CCC(C)(NC(=O)c1cc(OCC(F)(F)F)c(C2CC2)cn1)C(N)=O (centres unmarked) [Example 77, 5-Cyclopropyl-4-(2,2,2-trifluoro-ethoxy)-pyridine-2-carboxylic acid (1-carbamoyl-1-methyl-propyl)-amide]
EC50 (human CB1 receptors; [2]): > 10 µM | EC50 (human CB2 receptors; read-out: Human CB2 EC50): 0.137 µM

Compound: Cc1nc(C(C)(CC2CC2)NC(=O)c2cc(OC(C)CF)c(C3CC3)cn2)no1 (single isomer, unassigned) [Example 290, 5-cyclopropyl-N-(1-cyclopropyl-2-(5-methyl-1,2,4-oxadiazol-3-yl)propan-2-yl)-4-(1-fluoropropan-2-yloxy)picolinamide]
EC50 (human CB1 receptors; [3]): > 10 µM | EC50 (human CB2 receptors; read-out: Human CB2 EC50): 0.0006 µM

Compound: Cc1nc(C(C)(CC2CC2)NC(=O)c2cc(OCC(F)(F)F)c(C3(F)COC3)cn2)no1 (single isomer, unassigned) [Example 136, N-[1-cyclopropyl-2-(5-methyl-1,2,4-oxadiazol-3-yl)propan-2-yl]-5-(3-fluorooxetan-3-yl)-4-(2,2,2-trifluoroethoxy)pyridine-2-carboxamide]
EC50 (human CB1 receptors; [3]): > 10 µM | EC50 (human CB2 receptors; Human CB2 EC50 (uM)): 0.125 µM

Compound: Cc1nc(C(C)(NC(=O)c2cc(O[C@@H](C)C(F)(F)F)c(N3CC(F)(F)C3)cn2)C2CC2)no1 (stereo partly drawn) [Example 96, 5-(3,3-Difluoro-azetidin-1-yl)-4-((S)-2,2,2-trifluoro-1-methyl-ethoxy)-pyridine-2-carboxylic acid [1-cyclopropyl-1-(5-methyl-[1,2,4]oxadiazol-3-yl)-ethyl]-amide]
EC50 (human CB1 receptors; [2]): 0.11 µM | EC50 (human CB2 receptors; read-out: Human CB2 EC50): 0.0014 µM

Compound: CC(C)(C)C(NC(=O)c1cc(OCC(F)(F)F)c(C2CC2)cn1)c1noc(N)n1 (single isomer, unassigned) [Example 226, N-[1-(5-amino-1,2,4-oxadiazol-3-yl)-2,2-dimethylpropyl]-5-cyclopropyl-4-(2,2,2-trifluoroethoxy)pyridine-2-carboxamide]
EC50 (human CB1 receptors; [1]): > 10 µM | EC50 (human CB2 receptors; Human CB2 EC50 (uM)): 0.0065 µM

Compound: CNC(=O)C(NC(=O)c1cc(OCC(F)(F)F)c(C2CC2)cn1)C(C)(C)O (centres unmarked) [Example 236, 5-cyclopropyl-N-[3-hydroxy-3-methyl-1-(methylamino)-1-oxobutan-2-yl]-4-(2,2,2-trifluoroethoxy)pyridine-2-carboxamide]
EC50 (human CB1 receptors; [2]): > 10 µM | EC50 (human CB2 receptors; read-out: Human CB2 EC50): 0.0512 µM

Compound: Cc1nc(C(C)(CC2CC2)NC(=O)c2cc(O[C@@H](C)C(F)(F)F)c(C3(F)COC3)cn2)no1 (stereo partly drawn) [Example 171, N-[1-cyclopropyl-2-(5-methyl-1,2,4-oxadiazol-3-yl)propan-2-yl]-5-(3-fluorooxetan-3-yl)-4-[(2S)-1,1,1-trifluoropropan-2-yl]oxypyridine-2-carboxamide]
EC50 (human CB1 receptors; [2]): > 10 µM | EC50 (human CB2 receptors; read-out: Human CB2 EC50): 0.0149 µM

Compound: COC(=O)C(C)C(C)(C)NC(=O)c1cc(OCC2CC2)c(Cl)cn1 (centres unmarked) [Example 31, Methyl 3-({[5-chloro-4-(cyclopropylmethoxy)pyridin-2-yl]carbonyl}amino)-2,3-dimethylbutanoate]
EC50 (human CB1 receptors; [2]): > 10 µM | EC50 (human CB2 receptors; read-out: Human CB2 EC50): 0.0095 µM

Compound: C[C@H](Oc1cc(C(=O)NC(C(=O)N2CC(F)(F)C2)C(C)(C)C)ncc1C1CC1)C(F)(F)F (stereo partly drawn) [Example 203, 5-cyclopropyl-N-[1-(3,3-difluoroazetidin-1-yl)-3,3-dimethyl-1-oxobutan-2-yl]-4-[(2S)-1,1,1-trifluoropropan-2-yl]oxypyridine-2-carboxamide]
EC50 (human CB1 receptors; [2]): > 10 µM | EC50 (human CB2 receptors; read-out: Human CB2 EC50): 0.0051 µM

Compound: O=C(NC1(c2nccs2)COC1)c1cc(OCC2CC2)c(Cl)cn1 [Example 32, 5-Chloro-4-cyclopropylmethoxy-pyridine-2-carboxylic acid (3-thiazol-2-yl-oxetan-3-yl)-amide]
EC50 (human CB1 receptors; [2]): > 10 µM | EC50 (human CB2 receptors; read-out: Human CB2 EC50): 0.0746 µM

Compound: NC(=O)CC1(NC(=O)c2cc(OCCF)c(C3CC3)cn2)CS(=O)(=O)C1 [Example 281, N-[3-(2-amino-2-oxoethyl)-1,1-dioxothietan-3-yl]-5-cyclopropyl-4-(2-fluoroethoxy)pyridine-2-carboxamide]
EC50 (human CB1 receptors; [2]): > 10 µM | EC50 (human CB2 receptors; read-out: Human CB2 EC50): 0.0231 µM

EC50 (human CB1 receptors; [2]): 0.0901 µM | EC50 (human CB2 receptors; read-out: Human CB2 EC50): 0.005 µM
Compound: O=C(N[C@@H](c1cccnc1)C(F)(F)F)c1cc(OCc2ccc(F)cc2)c(Cl)cn1 [Example 40, 5-Chloro-4-(4-fluoro-benzyloxy)-pyridine-2-carboxylic acid ((S)-2,2,2-trifluoro-1-pyridin-3-yl-ethyl)-amide]
